Read-outs that look alike come from different tables or passages of the source.
Experiments:
[1] = target: single-chain tethered dimer of HIV protease (Human immunodeficiency virus 1, UniProt P04585); assay: biochemical; type: biochemical
Method: HIV Protease Inhibition Assay—HPLC Method
Active protease was prepared as described therein by extraction with 67% acetic acid, dilution 33-fold with water, dialysis against water and then against a “refolding buffer” consisting of 20 mM MES, 1 mM dithiothreitol and 10% glycerol. Protease was stored as a stock preparation at 10 uM in refolding buffer.
Substrate: Peptide of sequence: aminobenzoyl-Ala-Thr-His-Gln-Val-Tyr-Phe(NO2)-Val-Arg-Lys-Ala containing p-nitrophenylalanine, was prepared by solid phase synthesis as previously described Cheng et al., op.cit. Stock solutions of 2 mM substrate were prepared in DMSO.
Inhibitory compounds were dissolved in sufficient DMSO to make 3 mM stock solutions. All further dilutions were prepared in “assay buffer”: 1M NaCl, 50 mM MES, pH 5.5, 1 mM EDTA, 1 mM DTT, […] glycerol.
Enzyme reaction: In a 2 ml screw-cap centrifuge tube were added 50 ul protease (final concentration 0.25 nM) and 0.1 ml inhibitory compound (final concentration […]). After 15 min preincubation at room temperature, the reaction was started with the addition of 0.05 ml substrate (final concentration 5 uM). Incubation was carried out at 30 C. for 1 hr. The reaction was stopped with 1 ml 0.1M ammonium hydroxide.
HPLC measurement of product formation: The product (aminobenzoyl-Ala-Thr-His-Gln-Val-Tyr) was separated from substrate on a Pharmacia MonoQ anion exchange column. The injection volume was 0.2 ml. The mobile phases were: A (20 mM trisHCl, pH 9.0, 0.02% sodium Azide, 10% acetonitrile), B (20 mM tris HCl, pH 9.0, 0.02% sodium azide, 0.5M ammonium formate, 10% acetonitrile). The mobile phases were pumped at 1 ml/min, with a gradient from 0 to 30% B in 5 min, 100% B for 4 min to wash the column, and a re-equilibration for 4 min. The retention time of the product was 3.6 min. Detection with a Shimadzu model RF535 fluorescence monitor was at 330 nm (excitation) and 430 (emission).

[2] = system: HIV-1 (RF) in MT-2 cells; assay: microbe, parasite or virus in culture; type: cell-based; settings: HIV-1 infected MT-2 cells, class symbols
In short: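 HIV-1 laboratory strains (RF, MN, IIIB) grown in H9 cells in RPMI 1640 with 5% FCS; infections in MT-2 cells. Viral RNA quantified by hybridization with biotinylated gag/pol capture probes on streptavidin plates and alkaline phosphatase-conjugated reporter probes; BH10 gag-pol in vitro transcripts serve as RNA standards.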

[3] = HIV protease inhibition, class symbols, read-out: Ki
[4] = Human immunodeficiency virus 1, MT2, HIV RNA assay, read-out: IC90

| Compound | Ki ([1]; Table 2t, read-out: Ki) | Ki [1, 3] | Ki [1] | further results |
| --- | --- | --- | --- | --- |
| O=C1N(Cc2ccccc2)CC(O)C(Cc2ccccc2)N1Cc1ccccc1 (racemic) [30A] | > 1 µM |  |  |  |
| O=C1N(Cc2ccc(CO)cc2)CC(O)C(Cc2ccccc2)N1Cc1ccc(CO)cc1 (centres unmarked) [30B] | > 1 µM |  |  |  |
| N#Cc1cccc(CN2CC(O)C(Cc3ccccc3)N(Cc3cccc(C#N)c3)C2=O)c1 (centres unmarked) [30C] | > 1 µM |  |  |  |
| O=C1N(Cc2ccc(O)cc2)CC(O)C(Cc2ccccc2)N1Cc1ccc(O)cc1 (centres unmarked) [30D] | > 1 µM |  |  |  |
| O=C1N(CC2CC2)CC(O)C(Cc2ccccc2)N1CC1CC1 (centres unmarked) [30E] | > 1 µM |  |  |  |
| O=C1N(Cc2ccc3ccccc3c2)CC(O)C(Cc2ccccc2)N1Cc1ccc2ccccc2c1 (centres unmarked) [30F] | > 1 µM |  |  |  |
| O=C1N(CCCCCCO)CC(O)C(Cc2ccccc2)N1CCCCCCO (centres unmarked) [30G] | > 1 µM |  |  |  |
| O=S1(=O)N(Cc2ccc3ccccc3c2)CC(O)C(Cc2ccccc2)N1Cc1ccc2ccccc2c1 (centres unmarked) [30I] | 0.01 to 1 µM |  |  |  |
| O=S1(=O)N(CC2CC2)CC(O)C(Cc2ccccc2)N1CC1CC1 (centres unmarked) [30J] | > 1 µM |  |  |  |
| O=C1N(Cc2ccccc2)CCC(O)C(Cc2ccccc2)N1Cc1ccccc1 (centres unmarked) [30L] | > 1 µM |  |  |  |
| O=C1N(Cc2ccc3ccccc3c2)CCC(O)C(Cc2ccccc2)N1Cc1ccc2ccccc2c1 (centres unmarked) [30M] | > 1 µM |  |  |  |
| O=C1N(Cc2ccc(CO)cc2)CCC(O)C(Cc2ccccc2)N1Cc1ccc(CO)cc1 (centres unmarked) [30N] | 0.01 to 1 µM |  |  |  |
| O=C1N(CC2CC2)CCC(O)C(Cc2ccccc2)N1CC1CC1 (centres unmarked) [30O] | > 1 µM |  |  |  |
| N#Cc1cccc(CN2CCC(O)C(Cc3ccccc3)N(Cc3cccc(C#N)c3)C2=O)c1 (centres unmarked) [30P] | > 1 µM |  |  |  |
| O=S1(=O)N(Cc2ccccc2)CCC(O)C(Cc2ccccc2)N1Cc1ccccc1 (centres unmarked) [30Q] | > 1 µM |  |  |  |
| NC(=NO)c1cccc(CN2CCC(O)C(Cc3ccccc3)N(Cc3cccc(C(N)=NO)c3)C2=O)c1 (centres unmarked) [30R] | < 0.01 µM |  |  |  |
| O=C1CCN(Cc2ccccc2)C(=O)N(Cc2ccccc2)C1Cc1ccccc1 (centres unmarked) [30S] | > 1 µM |  |  |  |
| O=C1N(Cc2ccccc2)CCC(=NO)C(Cc2ccccc2)N1Cc1ccccc1 (centres unmarked) [30T] | > 1 µM |  |  |  |
| O=C1N(Cc2ccccc2)CC(O)C(Cc2ccccc2)N1Cc1ccccc1 (centres unmarked) [30U] | > 1 µM |  |  |  |
| O=C1N(CC2CCCCC2)C(Cc2ccccc2)C(O)C(O)C(Cc2ccccc2)N1CC1CCCCC1 (centres unmarked) [Example 3O] |  | 0.01 to 1 µM |  | IC90 ([2]; HIV RNA assay): + (+=>100 μg/mL) |
| O=C1N(Cc2ccc3ccccc3c2)C(Cc2ccccc2)C(O)C(O)C(Cc2ccccc2)N1Cc1ccc2ccccc2c1 (centres unmarked) [Example 3U] |  |  | < 0.01 µM | IC90 [2, 4]: < 10 µg/mL |
| C=CCN1C(=O)N(CC2CC2)C(Cc2ccccc2)C(O)C(O)C1Cc1ccccc1 (centres unmarked) [Example 3W] |  | < 0.01 µM |  | IC90 ([2]; HIV RNA assay): +++ (+++=<10 μg/mL) |
| CCCCN1C(=O)N(CC2CC2)C(Cc2ccccc2)C(O)C(O)C1Cc1ccccc1 (centres unmarked) [Example 3X] |  |  | < 0.01 µM | IC90 [2, 4]: < 10 µg/mL |
| O=C1N(Cc2ccccc2)C(Cc2ccccc2)C(O)C(O)C(Cc2ccccc2)N1Cc1ccncc1 (centres unmarked) [Example 4B] |  |  | < 0.01 µM | IC90 [2, 4]: < 10 µg/mL |
| O=C1N(Cc2ccncc2)C(Cc2ccccc2)C(O)C(O)C(Cc2ccccc2)N1CC1CC1 (centres unmarked) [Example 4C] |  |  | < 0.01 µM | IC90 [2, 4]: < 10 µg/mL |
| C=COCCN1C(=O)N(CCOC=C)C(Cc2ccccc2)C(O)C(O)C1Cc1ccccc1 (centres unmarked) [Example 4D] |  |  | 0.01 to 1 µM |  |

| Compound | Ki ([1]; Table 2t, read-out: Ki) | Ki [1, 3] | Ki [1] | further results |
| --- | --- | --- | --- | --- |
| O=C1N(Cc2ccccc2)C(Cc2ccccc2)C(O)C(O)C(Cc2ccccc2)N1CC1CCCC1 (centres unmarked) [Example 4E] |  | < 0.01 µM |  | IC90 ([2]; HIV RNA assay): +++ (+++=<10 μg/mL) |
| O=C1N(CC2CCCC2)C(Cc2ccccc2)C(O)C(O)C(Cc2ccccc2)N1CC1CC1 (centres unmarked) [Example 4F] |  |  | < 0.01 µM | IC90 [2, 4]: < 10 µg/mL |
| CCCN1C(=O)N(Cc2ccccc2)C(Cc2ccccc2)C(O)C(O)C1Cc1ccccc1 (centres unmarked) [Example 4G] |  |  | < 0.01 µM | IC90 [2, 4]: < 10 µg/mL |
| [2H]c1c([2H])c([2H])c(C([2H])([2H])N2C(=O)N(C([2H])([2H])c3c([2H])c([2H])c([2H])c([2H])c3[2H])C(Cc3ccccc3)C(O)C(O)C2Cc2ccccc2)c([2H])c1[2H] (centres unmarked) [Example 4H] |  |  | < 0.01 µM | IC90 [2, 4]: < 10 µg/mL |
| O=C1N(CC=Cc2ccccc2)C(Cc2ccccc2)C(O)C(O)C(Cc2ccccc2)N1CC1CC1 (centres unmarked) [Example 4I] |  |  | < 0.01 µM | IC90 [2, 4]: < 10 µg/mL |
| O=C1N(Cc2ccccn2)C(Cc2ccccc2)C(O)C(O)C(Cc2ccccc2)N1CC1CC1 (centres unmarked) [Example 4N] |  | < 0.01 µM |  | IC90 ([2]; HIV RNA assay): +++ (+++=<10 μg/mL) |
| O=C1N(Cc2ccccc2)C(Cc2ccccc2)C(O)C(O)C(Cc2ccccc2)N1Cc1ccc2ccccc2n1 (centres unmarked) [Example 4O] |  |  | 0.01 to 1 µM | IC90 [2, 4]: < 10 µg/mL |
| CCCN1C(=O)N(Cc2ccc3ccccc3c2)C(Cc2ccccc2)C(O)C(O)C1Cc1ccccc1 (centres unmarked) [Example 4T] |  | < 0.01 µM |  | IC90 ([2]; HIV RNA assay): +++ (+++=<10 μg/mL) |
| O=C1NC(Cc2ccccc2)C(O)C(O)C(Cc2ccccc2)N1CC1CC1 (centres unmarked) [Example 4X] |  | 0.01 to 1 µM |  |  |
| C=CCN1C(=O)N(CC2CCCC2)C(Cc2ccccc2)C(O)C(O)C1Cc1ccccc1 (centres unmarked) [Example 5B] |  | < 0.01 µM |  | IC90 ([2]; HIV RNA assay): +++ (+++=<10 μg/mL) |
| C=CCN1C(=O)N(Cc2ccc3ccccc3n2)C(Cc2ccccc2)C(O)C(O)C1Cc1ccccc1 (centres unmarked) [Example 5D] |  | < 0.01 µM |  | IC90 ([2]; HIV RNA assay): +++ (+++=<10 μg/mL) |
| C=CCN1C(=O)N(Cc2ccncc2)C(Cc2ccccc2)C(O)C(O)C1Cc1ccccc1 (centres unmarked) [Example 5E] |  |  | 0.01 to 1 µM | IC90 [2, 4]: < 10 µg/mL |
| O=C1N(Cc2cccnc2)C(Cc2ccccc2)C(O)C(O)C(Cc2ccccc2)N1CC1CC1 (centres unmarked) [Example 5G] |  | < 0.01 µM |  | IC90 ([2]; HIV RNA assay): +++ (+++=<10 μg/mL) |
| O=C1N(Cc2cccnc2)C(Cc2ccccc2)C(O)C(O)C(Cc2ccccc2)N1Cc1cccnc1 (centres unmarked) [Example 5O] |  |  | < 0.01 µM | IC90 [2, 4]: < 10 µg/mL |
| COC(=O)c1cccc(CN2C(=O)N(Cc3cccc(C(=O)OC)c3)C(Cc3ccccc3)C(O)C(O)C2Cc2ccccc2)c1 (centres unmarked) [Example 5T] |  |  | < 0.01 µM | IC90 [2, 4]: < 10 µg/mL |
| CC(C)N1C(=O)N(Cc2ccc(O)cc2)C(Cc2ccccc2)C(O)C(O)C1Cc1ccccc1 (centres unmarked) [Example 5Y] |  | < 0.01 µM |  | IC90 ([2]; HIV RNA assay): +++ (+++=<10 μg/mL) |
| O=C(O)c1cccc(CN2C(=O)N(Cc3cccc(C(=O)O)c3)C(Cc3ccccc3)C(O)C(O)C2Cc2ccccc2)c1 (centres unmarked) [Example 6A] |  | < 0.01 µM |  | IC90 ([2]; HIV RNA assay): +++ (+++=<10 μg/mL) |
| O=C(O)c1ccc(CN2C(=O)N(Cc3ccc(C(=O)O)cc3)C(Cc3ccccc3)C(O)C(O)C2Cc2ccccc2)cc1 (centres unmarked) [Example 6B] |  | 0.01 to 1 µM |  | IC90 ([2]; HIV RNA assay): ++ (++=10 to 100 μg/mL) |
| O=C1N(Cc2cccc(O)c2)C(Cc2ccccc2)C(O)C(O)C(Cc2ccccc2)N1CC1CC1 (centres unmarked) [Example 6D] |  | < 0.01 µM |  | IC90 ([2]; HIV RNA assay): +++ (+++=<10 μg/mL) |
| O=C1N(Cc2ccc(O)cc2)C(Cc2ccccc2)C(O)C(O)C(Cc2ccccc2)N1CC1CC1 (centres unmarked) [Example 6E] |  | < 0.01 µM |  | IC90 ([2]; HIV RNA assay): +++ (+++=<10 μg/mL) |
| O=C1N(Cc2ccc(Cl)s2)C(Cc2ccccc2)C(O)C(O)C(Cc2ccccc2)N1Cc1ccc(Cl)s1 (centres unmarked) [Example 6F] |  | 0.01 to 1 µM |  | IC90 ([2]; HIV RNA assay): +++ (+++=<10 μg/mL) |
| O=C1N(CC2CCC2)C(Cc2ccccc2)C(O)C(O)C(Cc2ccccc2)N1CC1CCC1 (centres unmarked) [Example 6G] |  |  | < 0.01 µM | IC90 [2, 4]: < 10 µg/mL |
| O=C1N(CC2CCCC2)C(Cc2ccccc2)C(O)C(O)C(Cc2ccccc2)N1CC1CCCC1 (centres unmarked) [Example 6H] |  |  | < 0.01 µM | IC90 [2, 4]: < 10 µg/mL |
| CCCCN1C(=O)N(CC=C(C)C)C(Cc2ccccc2)C(O)C(O)C1Cc1ccccc1 (centres unmarked) [Example 6I] |  | < 0.01 µM |  | IC90 ([2]; HIV RNA assay): +++ (+++=<10 μg/mL) |
| O=C1[C@@H](Cc2ccccc2)C[C@@H](O)[C@@H](Cc2ccccc2)N1Cc1ccccc1 [Example 25A] |  |  | > 1 µM |  |

Reference: patent publication USRE37781E1, “Substituted cyclic carbonyls and derivatives thereof useful as retroviral protease inhibitors” (DuPont Pharmaceuticals Company, priority 1991, dated 2002)
